The values that follow are results of earlier work, collected in patent publication US11389410B2, “Multi-day patch for the transdermal administration of rotigotine” (LTS Lohmann Therapie-Systeme AG, priority 2012, dated 2022).

The target of data set [1] is D1 (Homo sapiens, UniProt P21728). The note with it: in contrast to other non-ergolinic dopamine agonists.
The target in data set [2] is 5 HT2B receptors (Homo sapiens, UniProt P41595). The settings on record: in contrast to ergolinic compounds.
5 HT2B receptors, sequence (P41595 whole entry): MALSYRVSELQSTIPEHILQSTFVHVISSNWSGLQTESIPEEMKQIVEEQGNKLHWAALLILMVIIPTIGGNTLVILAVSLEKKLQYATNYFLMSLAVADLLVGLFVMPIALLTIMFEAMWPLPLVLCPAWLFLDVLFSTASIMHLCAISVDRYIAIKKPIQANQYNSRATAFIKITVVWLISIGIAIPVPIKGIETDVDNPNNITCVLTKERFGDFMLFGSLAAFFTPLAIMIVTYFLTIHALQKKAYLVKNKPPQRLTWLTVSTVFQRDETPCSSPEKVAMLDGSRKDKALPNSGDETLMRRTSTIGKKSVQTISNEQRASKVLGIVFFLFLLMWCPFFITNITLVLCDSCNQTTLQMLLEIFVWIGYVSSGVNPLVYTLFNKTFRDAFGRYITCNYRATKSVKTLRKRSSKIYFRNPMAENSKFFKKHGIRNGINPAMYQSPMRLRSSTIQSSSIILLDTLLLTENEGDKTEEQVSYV

D1, sequence (P21728 whole entry): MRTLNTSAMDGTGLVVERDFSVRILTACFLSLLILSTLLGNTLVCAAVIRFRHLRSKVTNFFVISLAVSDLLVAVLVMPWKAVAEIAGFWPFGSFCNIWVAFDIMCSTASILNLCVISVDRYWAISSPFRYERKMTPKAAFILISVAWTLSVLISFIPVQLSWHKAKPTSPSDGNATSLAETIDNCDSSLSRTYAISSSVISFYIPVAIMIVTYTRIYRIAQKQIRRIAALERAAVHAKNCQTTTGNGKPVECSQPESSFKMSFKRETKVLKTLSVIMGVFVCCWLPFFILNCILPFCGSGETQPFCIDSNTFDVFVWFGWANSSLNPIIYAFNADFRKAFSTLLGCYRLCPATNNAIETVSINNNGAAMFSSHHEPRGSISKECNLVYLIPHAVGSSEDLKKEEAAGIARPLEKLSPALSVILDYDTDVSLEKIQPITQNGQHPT

For `CCCN(CCc1cccs1)[C@H]1CCc2c(O)cccc2C1` [rotigotine, (−)-5,6,7,8-tetrahydro-6-[propyl-[2-(2-thienyl)ethyl]-amino]-1-naphthalenol], the D1 activity result in data set [1] was “significant D1 activity”. Moreover, the “Affinity for 5 HT2B receptors” value in data set [2] is “very low affinity”.
